From ChEMBL document CHEMBL5465560, “Selectivity Literature for EUbOPEN Chemogenomic Library” (2024) come the findings set out here.

Assay [1] relates to Leucine-rich repeat serine/threonine-protein kinase 2 (Homo sapiens), Q5S007 [G2019S]. The experiment in a line: (§1) Selectivity interaction (Adapta Assay) EUB0001632a LRRK2. To be noted: at 10 µM.
The test system of assay [2] is Leucine-rich repeat serine/threonine-protein kinase 2 (Homo sapiens), Q5S007 [I2020T]. The assay is described as §1. To be noted: at 10 µM.
Leucine-rich repeat serine/threonine-protein kinase 2 (Homo sapiens), Q5S007 [I2020T], sequence (Q5S007 whole entry I2020T): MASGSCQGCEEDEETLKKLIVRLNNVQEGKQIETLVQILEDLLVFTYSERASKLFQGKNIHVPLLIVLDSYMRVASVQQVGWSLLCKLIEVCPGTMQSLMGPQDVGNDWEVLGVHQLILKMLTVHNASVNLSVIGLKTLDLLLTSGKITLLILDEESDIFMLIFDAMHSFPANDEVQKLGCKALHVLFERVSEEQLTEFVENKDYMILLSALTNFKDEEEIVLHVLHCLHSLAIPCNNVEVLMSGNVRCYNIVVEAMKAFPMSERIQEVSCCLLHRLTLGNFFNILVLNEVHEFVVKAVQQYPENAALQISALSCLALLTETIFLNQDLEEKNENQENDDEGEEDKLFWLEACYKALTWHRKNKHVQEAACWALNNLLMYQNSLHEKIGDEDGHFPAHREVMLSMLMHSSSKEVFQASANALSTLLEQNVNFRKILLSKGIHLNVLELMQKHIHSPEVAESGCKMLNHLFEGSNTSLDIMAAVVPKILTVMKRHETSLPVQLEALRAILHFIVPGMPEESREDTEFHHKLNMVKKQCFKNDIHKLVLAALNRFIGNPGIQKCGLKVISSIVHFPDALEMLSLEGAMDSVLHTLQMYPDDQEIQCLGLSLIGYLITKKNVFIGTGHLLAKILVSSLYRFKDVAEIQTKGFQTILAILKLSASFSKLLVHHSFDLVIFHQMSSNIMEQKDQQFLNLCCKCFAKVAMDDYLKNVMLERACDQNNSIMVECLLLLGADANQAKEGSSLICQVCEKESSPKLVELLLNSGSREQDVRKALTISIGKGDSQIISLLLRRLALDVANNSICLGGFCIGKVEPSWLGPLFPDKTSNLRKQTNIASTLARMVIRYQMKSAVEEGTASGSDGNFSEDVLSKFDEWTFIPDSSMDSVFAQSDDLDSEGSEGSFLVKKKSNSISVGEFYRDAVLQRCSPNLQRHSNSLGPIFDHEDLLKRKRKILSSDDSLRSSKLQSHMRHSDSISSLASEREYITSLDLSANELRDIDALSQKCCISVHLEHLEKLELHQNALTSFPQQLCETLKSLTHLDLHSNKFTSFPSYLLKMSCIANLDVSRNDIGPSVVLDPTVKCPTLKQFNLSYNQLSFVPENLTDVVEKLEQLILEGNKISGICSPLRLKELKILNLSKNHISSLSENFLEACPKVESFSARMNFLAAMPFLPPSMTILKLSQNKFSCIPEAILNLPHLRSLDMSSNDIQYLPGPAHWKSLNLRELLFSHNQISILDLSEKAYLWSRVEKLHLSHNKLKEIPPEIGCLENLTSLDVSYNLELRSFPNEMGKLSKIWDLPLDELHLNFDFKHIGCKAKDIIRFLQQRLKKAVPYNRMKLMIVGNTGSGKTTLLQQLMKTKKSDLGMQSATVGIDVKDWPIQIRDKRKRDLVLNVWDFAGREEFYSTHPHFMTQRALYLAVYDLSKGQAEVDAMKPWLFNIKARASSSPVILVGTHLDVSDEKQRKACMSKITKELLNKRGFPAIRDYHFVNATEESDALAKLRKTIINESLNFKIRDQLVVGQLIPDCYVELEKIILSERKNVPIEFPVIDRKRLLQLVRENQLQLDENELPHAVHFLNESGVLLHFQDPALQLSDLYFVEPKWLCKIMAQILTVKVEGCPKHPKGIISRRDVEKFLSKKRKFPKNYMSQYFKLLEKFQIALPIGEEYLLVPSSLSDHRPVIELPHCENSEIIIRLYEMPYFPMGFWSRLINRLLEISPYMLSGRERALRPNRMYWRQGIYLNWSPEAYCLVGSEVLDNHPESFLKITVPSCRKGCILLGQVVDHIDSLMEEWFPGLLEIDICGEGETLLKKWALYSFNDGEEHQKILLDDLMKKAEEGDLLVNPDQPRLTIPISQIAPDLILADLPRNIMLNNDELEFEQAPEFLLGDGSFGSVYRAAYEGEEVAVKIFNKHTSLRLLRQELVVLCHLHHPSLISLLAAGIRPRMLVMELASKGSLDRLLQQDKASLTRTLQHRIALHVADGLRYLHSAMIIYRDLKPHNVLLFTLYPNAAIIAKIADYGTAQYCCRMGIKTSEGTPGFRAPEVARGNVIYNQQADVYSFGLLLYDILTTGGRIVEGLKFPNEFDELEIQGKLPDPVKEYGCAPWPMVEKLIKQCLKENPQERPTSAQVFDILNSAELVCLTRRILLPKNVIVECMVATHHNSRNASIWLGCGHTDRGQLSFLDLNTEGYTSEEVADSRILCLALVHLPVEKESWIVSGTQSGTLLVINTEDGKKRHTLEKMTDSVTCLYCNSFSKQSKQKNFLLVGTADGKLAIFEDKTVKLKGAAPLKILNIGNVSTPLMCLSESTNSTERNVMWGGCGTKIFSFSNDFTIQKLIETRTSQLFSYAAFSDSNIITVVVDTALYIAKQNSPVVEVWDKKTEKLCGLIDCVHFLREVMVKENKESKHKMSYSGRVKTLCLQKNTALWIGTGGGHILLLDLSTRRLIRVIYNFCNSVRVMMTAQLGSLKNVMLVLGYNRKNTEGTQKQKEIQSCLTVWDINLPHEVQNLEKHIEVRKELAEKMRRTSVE
Assay [3] deals with Leucine-rich repeat serine/threonine-protein kinase 2 (Homo sapiens), Q5S007 [R1441C]. The assay is described as §1. To be noted: at 10 µM.
Leucine-rich repeat serine/threonine-protein kinase 2 (Homo sapiens), Q5S007 [R1441C], sequence (Q5S007 whole entry R1441C): as the sequence (Q5S007 whole entry I2020T) above, with R1441C, T2020I counted along it
In assay [4] the target is Leucine-rich repeat serine/threonine-protein kinase 2 (Homo sapiens, UniProt Q5S007). Described as §1. To be noted: at 10 µM.
Leucine-rich repeat serine/threonine-protein kinase 2, sequence (Q5S007 whole entry): as the sequence (Q5S007 whole entry I2020T) above, with T2020I counted along it
Assay [5] deals with Serine/threonine-protein kinase WNK1 (Homo sapiens) (UniProt Q9H4A3). The experiment in a line: Selectivity interaction (Kinase panel (KiNativ target engagement assay in Jurkat cells)) EUB0001635a WNK1. It is filed as cell-based. To be noted: at 1 µM.
Serine/threonine-protein kinase WNK1 (Homo sapiens), sequence (Q9H4A3 whole entry, looked up): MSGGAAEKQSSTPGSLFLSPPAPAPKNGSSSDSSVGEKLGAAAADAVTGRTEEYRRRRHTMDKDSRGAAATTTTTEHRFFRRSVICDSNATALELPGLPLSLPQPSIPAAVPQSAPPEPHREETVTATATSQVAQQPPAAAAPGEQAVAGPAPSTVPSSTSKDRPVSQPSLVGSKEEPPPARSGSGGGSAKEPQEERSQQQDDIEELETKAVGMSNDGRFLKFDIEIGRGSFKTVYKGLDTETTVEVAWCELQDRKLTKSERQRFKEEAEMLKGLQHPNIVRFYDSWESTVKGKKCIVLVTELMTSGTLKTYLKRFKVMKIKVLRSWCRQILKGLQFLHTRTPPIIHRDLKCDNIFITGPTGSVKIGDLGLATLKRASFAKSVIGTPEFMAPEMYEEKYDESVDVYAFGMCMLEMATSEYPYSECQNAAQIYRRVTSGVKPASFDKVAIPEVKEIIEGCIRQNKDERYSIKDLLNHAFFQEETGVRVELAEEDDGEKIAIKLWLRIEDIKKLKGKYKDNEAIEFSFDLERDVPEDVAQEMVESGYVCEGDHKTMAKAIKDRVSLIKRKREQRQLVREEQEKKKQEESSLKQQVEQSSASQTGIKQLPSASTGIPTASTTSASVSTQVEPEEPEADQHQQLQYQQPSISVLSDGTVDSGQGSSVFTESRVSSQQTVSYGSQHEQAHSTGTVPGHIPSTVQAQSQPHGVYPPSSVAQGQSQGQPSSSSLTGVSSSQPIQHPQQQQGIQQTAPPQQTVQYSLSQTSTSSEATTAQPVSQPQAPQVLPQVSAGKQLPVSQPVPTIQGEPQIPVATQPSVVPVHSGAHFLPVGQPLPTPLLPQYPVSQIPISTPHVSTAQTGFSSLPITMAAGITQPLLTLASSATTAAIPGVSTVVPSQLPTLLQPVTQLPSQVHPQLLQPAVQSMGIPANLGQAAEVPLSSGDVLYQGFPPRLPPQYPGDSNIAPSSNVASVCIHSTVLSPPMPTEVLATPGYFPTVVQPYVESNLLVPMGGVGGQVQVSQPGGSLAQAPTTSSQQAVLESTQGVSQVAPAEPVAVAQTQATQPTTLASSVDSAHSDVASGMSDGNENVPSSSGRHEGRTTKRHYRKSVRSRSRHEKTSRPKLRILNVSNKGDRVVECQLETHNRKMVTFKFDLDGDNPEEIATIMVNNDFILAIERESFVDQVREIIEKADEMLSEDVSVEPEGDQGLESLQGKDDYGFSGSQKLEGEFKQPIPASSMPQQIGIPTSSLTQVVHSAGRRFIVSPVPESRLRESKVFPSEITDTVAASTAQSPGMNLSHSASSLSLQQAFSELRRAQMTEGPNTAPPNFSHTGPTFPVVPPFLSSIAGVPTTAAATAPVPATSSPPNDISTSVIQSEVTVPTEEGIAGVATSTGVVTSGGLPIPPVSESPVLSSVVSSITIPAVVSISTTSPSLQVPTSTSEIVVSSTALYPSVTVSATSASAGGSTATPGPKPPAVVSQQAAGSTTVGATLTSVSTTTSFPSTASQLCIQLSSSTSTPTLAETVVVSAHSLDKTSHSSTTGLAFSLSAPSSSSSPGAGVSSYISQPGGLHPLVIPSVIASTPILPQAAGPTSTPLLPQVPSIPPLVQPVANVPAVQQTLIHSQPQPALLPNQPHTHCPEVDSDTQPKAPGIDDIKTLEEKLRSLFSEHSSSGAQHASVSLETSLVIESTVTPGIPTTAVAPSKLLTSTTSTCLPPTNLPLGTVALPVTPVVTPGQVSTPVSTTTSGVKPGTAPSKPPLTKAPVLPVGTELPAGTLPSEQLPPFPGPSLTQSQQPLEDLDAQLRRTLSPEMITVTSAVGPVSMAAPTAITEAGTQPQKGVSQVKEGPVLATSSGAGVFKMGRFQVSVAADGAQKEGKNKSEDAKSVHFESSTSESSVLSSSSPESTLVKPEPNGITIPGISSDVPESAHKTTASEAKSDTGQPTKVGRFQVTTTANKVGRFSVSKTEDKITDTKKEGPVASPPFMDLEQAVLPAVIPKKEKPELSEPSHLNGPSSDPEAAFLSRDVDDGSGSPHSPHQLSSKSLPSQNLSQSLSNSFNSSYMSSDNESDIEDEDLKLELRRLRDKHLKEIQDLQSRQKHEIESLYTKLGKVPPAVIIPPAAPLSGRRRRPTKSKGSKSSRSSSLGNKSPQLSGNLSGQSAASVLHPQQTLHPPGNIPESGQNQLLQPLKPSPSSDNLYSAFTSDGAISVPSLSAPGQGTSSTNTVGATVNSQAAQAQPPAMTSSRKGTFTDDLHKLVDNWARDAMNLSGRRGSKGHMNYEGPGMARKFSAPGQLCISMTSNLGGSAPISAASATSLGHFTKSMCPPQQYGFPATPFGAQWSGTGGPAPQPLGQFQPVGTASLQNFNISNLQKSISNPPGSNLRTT
In assay [6] the target is T1, Myosin light chain kinase (Homo sapiens) (UniProt Q32MK0).
T1 sequence (whole entry): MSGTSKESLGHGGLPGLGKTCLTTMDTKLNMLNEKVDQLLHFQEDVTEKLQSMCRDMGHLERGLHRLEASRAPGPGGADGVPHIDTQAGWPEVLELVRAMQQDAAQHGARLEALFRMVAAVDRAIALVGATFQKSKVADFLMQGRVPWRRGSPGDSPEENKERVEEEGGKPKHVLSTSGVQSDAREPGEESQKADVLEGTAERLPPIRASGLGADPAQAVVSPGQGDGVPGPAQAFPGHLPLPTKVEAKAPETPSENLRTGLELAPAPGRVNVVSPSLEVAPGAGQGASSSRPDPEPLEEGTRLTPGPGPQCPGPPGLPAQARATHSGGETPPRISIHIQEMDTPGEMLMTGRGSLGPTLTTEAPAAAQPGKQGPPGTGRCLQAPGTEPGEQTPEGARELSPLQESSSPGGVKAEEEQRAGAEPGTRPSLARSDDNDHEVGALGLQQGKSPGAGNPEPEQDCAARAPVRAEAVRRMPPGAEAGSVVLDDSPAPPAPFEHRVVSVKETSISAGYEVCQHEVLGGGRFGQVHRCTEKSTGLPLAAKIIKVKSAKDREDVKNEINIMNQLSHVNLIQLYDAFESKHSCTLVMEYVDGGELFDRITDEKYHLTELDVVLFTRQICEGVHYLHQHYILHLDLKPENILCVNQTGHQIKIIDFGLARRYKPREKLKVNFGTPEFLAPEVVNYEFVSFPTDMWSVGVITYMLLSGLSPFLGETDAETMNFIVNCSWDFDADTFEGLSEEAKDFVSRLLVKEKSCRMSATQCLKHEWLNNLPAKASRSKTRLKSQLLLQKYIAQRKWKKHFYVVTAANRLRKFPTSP
Kind of assay: Selectivity interaction (KinomeScan (DiscoverX)) EUB0001049a MYLK3. To be noted: at 1 µM.

Assay [7] concerns the target Tyrosine-protein kinase Lyn (Homo sapiens, UniProt P07948). The experiment in a line: Selectivity interaction (KinomeScan (DiscoverX)) EUB0000092b LYN. To be noted: at 10 µM.
In assay [8] the target is cAMP-dependent protein kinase catalytic subunit beta (Homo sapiens) (UniProt P22694). The experiment in a line: Selectivity interaction (KinomeScan (DiscoverX)) EUB0000092b PRKACB. To be noted: at 10 µM.
Assay [9] concerns the target T2, Inhibitor of nuclear factor kappa-B kinase subunit epsilon (Homo sapiens) (UniProt Q14164).
T2 sequence (whole entry): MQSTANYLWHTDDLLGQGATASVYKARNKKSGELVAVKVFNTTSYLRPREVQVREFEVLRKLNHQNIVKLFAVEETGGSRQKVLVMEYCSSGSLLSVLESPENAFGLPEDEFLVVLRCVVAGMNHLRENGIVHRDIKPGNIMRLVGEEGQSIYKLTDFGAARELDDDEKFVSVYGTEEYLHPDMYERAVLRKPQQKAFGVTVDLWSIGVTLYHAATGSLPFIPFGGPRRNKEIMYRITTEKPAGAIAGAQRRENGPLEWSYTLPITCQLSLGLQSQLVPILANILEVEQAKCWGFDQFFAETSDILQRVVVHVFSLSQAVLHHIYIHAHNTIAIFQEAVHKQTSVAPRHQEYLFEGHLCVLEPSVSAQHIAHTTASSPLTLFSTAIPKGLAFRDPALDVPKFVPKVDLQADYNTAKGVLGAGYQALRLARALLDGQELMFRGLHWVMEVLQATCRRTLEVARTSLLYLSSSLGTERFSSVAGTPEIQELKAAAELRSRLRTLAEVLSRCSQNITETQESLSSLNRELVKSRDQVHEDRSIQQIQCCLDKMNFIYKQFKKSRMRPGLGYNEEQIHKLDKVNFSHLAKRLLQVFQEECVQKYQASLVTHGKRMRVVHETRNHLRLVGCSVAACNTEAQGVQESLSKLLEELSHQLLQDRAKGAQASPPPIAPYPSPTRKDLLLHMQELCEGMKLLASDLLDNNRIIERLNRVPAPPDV
To be noted: at 1 µM.

Assay [10] addresses T3, Phosphatidylinositol 5-phosphate 4-kinase type-2 beta (Homo sapiens) (UniProt P78356).
T3 sequence (whole entry): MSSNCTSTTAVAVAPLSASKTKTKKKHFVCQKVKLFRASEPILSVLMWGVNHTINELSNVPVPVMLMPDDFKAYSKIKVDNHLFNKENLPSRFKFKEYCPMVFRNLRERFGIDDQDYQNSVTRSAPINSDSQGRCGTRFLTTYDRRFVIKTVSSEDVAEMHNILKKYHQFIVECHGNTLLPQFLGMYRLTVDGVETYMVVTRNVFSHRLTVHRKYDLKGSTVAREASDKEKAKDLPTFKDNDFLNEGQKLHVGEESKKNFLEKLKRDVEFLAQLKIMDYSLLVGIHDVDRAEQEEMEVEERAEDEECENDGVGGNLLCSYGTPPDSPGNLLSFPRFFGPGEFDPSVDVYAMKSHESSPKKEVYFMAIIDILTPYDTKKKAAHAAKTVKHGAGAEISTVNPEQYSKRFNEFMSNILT
To be noted: at 10 µM.

Leucine-rich repeat serine/threonine-protein kinase 2 (Homo sapiens), Q5S007 [G2019S], sequence (Q5S007 whole entry G2019S): as the sequence (Q5S007 whole entry I2020T) above, with G2019S, T2020I counted along it

In the case of `Cn1cc(-n2cnc3c(NCc4nc5cc(Cl)c(Cl)cc5[nH]4)nc(N4CCOCC4)nc32)cn1`, the % of inhibition in [1] was determined as 23.9%; in [2], 100%; in assay [3] it was 96.1%; in [4], 18.9%.

As to `C=CC(=O)Nc1ccc(C(=O)Nc2[nH]nc3c2CN(C(=O)N[C@H](CN(C)C)c2ccccc2)C3(C)C)cc1`, the % of engagement in [5] was -16.1%.

On to `COc1cc(Nc2nc(C)cc(-c3cnn4nc(OC)ccc34)n2)cc(C(F)(F)F)c1`, for which the % of control in assay [6] came out at 82%.

On to `CCC(=O)N1CCN(c2ccc(-n3c(=O)ccc4cnc5ccc(-c6cnc7ccccc7c6)cc5c43)cc2C(F)(F)F)CC1`, for which the % of control in [7] was 79%; in assay [8] it was 100%.

The molecule `Cc1ccc(-c2ccc3c(ccc4sc5c(c43)NC[C@@H](C)NC5=O)n2)cn1` displayed a % of inhibition in assay [9] of 11%.

The molecule `COCC(=O)NC/C=C/c1ccc2ncnc(Nc3ccc(Oc4ccc(C)nc4)c(C)c3)c2c1` [CP-724714] gave a % of control in assay [10] of 100%.
